The results in this text go back to patent US4012284A (Societa' Farmaceutici Italia, S.p.A., priority 1962, dated 1977).

Where a name gives a salt, the structure may show the parent alone.

The data set can be described thus: Solubility. The format is physicochemical.

As for `COc1cccc2c1C(=O)c1c(O)c3c(c(O)c1C2=O)C[C@@](O)(C(C)=O)C[C@@H]3O` [Daunomycinone, daunomycinone], the solubility in water entry is “insoluble”. Moreover, the solubility result (in benzene, aliphatic esters, ethyl ether) is “scarcely soluble”. Moreover, the solubility entry (in butanol, acetone) is “less soluble”. Moreover, under “in methanol, ethanol, chloroform”, the solubility result is “soluble”. Also, the solubility result (in petroleum ether) was “insoluble”.

In the case of `COc1cccc2c1C(=O)c1c(O)c3c(c(O)c1C2=O)C[C@@](O)(C(C)=O)C[C@@H]3O[C@H]1C[C@H](N)[C@H](O)[C@H](C)O1` [F.I. 1762 hydrochloride], the solubility in water result is recorded as “soluble”. Moreover, the solubility result (in chloroform, acetone, benzol and non-polar solvents) is “insoluble”. For the same molecule, under “in methanol, aqueous alcohols”, the solubility result is “soluble”.

In the case of `COc1cccc2c1C(=O)c1c(O)c3c(c(O)c1C2=O)C[C@@](O)(C(C)=O)C[C@@H]3O[C@H]1C[C@H](N)[C@H](O)[C@H](C)O1` [F.I. 1762 picrate], where the note is “in lower aliphatic alcohols, halogenated hydrocarbon (chloroform), ketones (acetone, methylethylketone)”, the solubility entry is “soluble”.
